Data taken from ChEMBL document CHEMBL3885881, “DrugMatrix”.

Species on record: Rattus norvegicus
Test: DrugMatrix - Regimen: Daily Repeat
Type: toxicity, organism-based, Sprague-Dawley
Parameters: regimen Daily Repeat, gender Male, age 6-8 weeks
Conditions: in vivo, po, route oral GAVAGE, vehicle .5 % CMC; for ABSOLUTE BASOPHIL / ABSOLUTE EOSINOPHIL / ABSOLUTE LYMPHOCYTE / ABSOLUTE MONOCYTE / ABSOLUTE SEGMENTED NEUTROPHIL / BASOPHIL / EOSINOPHIL / ERYTHROCYTE COUNT / HEMATOCRIT / HEMOGLOBIN / LEUKOCYTE COUNT / LYMPHOCYTE / MEAN CORPUSCULAR HEMOGLOBIN / MEAN CORPUSCULAR HEMOGLOBIN CONCENTRATION / MEAN CORPUSCULAR VOLUME / MONOCYTE / NEUTROPHIL / NUCLEATED RED BLOOD CELLS / PLATELET COUNT: tissue Blood; for ALANINE AMINOTRANSFERASE / ALBUMIN / ALKALINE PHOSPHATASE / ASPARTATE AMINOTRANSFERASE / BLOOD UREA NITROGEN / CARBON DIOXIDE / CHLORIDE / CHOLESTEROL / CREATINE PHOSPHOKINASE / CREATININE / GLUCOSE / LACTATE DEHYDROGENASE / LIPASE / PHOSPHORUS / POTASSIUM / SODIUM / TOTAL BILIRUBIN / TOTAL PROTEIN / URIC ACID: tissue Plasma
[1] = 0 mg/kg, 72 h, dose level Control, time 3 day
[2] = 0 mg/kg, 120 h, dose level Control, time 5 day
[3] = 50 mg/kg, 72 h, dose level Low, time 3 day

CNC(=C[N+](=O)[O-])NCCSCc1ccc(CN(C)C)o1 [RANITIDINE]
ABSOLUTE BASOPHIL [1]: 0 CELLS/uL | ABSOLUTE EOSINOPHIL [1]: 0 CELLS/uL | ABSOLUTE LYMPHOCYTE [1]: 12269.67 CELLS/uL | ABSOLUTE MONOCYTE [1]: 160.33 CELLS/uL | ABSOLUTE SEGMENTED NEUTROPHIL [1]: 970 CELLS/uL | BASOPHIL [1]: 0% | EOSINOPHIL [1]: 0% | ERYTHROCYTE COUNT [1]: 5.76 x10E6/uL | HEMATOCRIT [1]: 36.57% | HEMOGLOBIN [1]: 14.22 G/DL | LEUKOCYTE COUNT [1]: 13.4 x10E3/uL | LYMPHOCYTE [1]: 91.67% | MEAN CORPUSCULAR HEMOGLOBIN [1]: 24.67 pg | MEAN CORPUSCULAR HEMOGLOBIN CONCENTRATION [1]: 38.85 G/DL | MEAN CORPUSCULAR VOLUME [1]: 63.52 fL | MONOCYTE [1]: 1.17% | NEUTROPHIL [1]: 7.17% | NUCLEATED RED BLOOD CELLS [1]: 0.33 /100WBC | PLATELET COUNT [1]: 1250.83 x10E3/uL | ALANINE AMINOTRANSFERASE [1]: 49.17 u/L | ALBUMIN [1]: 4.33 G/DL | ALKALINE PHOSPHATASE [1]: 378.5 u/L | ASPARTATE AMINOTRANSFERASE [1]: 82.17 u/L | BLOOD UREA NITROGEN [1]: 15 mg/dL | CARBON DIOXIDE [1]: 34.33 mmol/L | CHLORIDE [1]: 99.17 MEQ/L | CHOLESTEROL [1]: 71.17 mg/dL | CREATINE PHOSPHOKINASE [1]: 258.67 u/L | CREATININE [1]: 0.18 mg/dL | GLUCOSE [1]: 142.67 mg/dL | LACTATE DEHYDROGENASE [1]: 154.33 u/L | LIPASE [1]: 9 u/L | PHOSPHORUS [1]: 11.67 mg/dL | POTASSIUM [1]: 7.13 MEQ/L | SODIUM [1]: 142.22 MEQ/L | TOTAL BILIRUBIN [1]: 0.18 mg/dL | TOTAL PROTEIN [1]: 5.77 G/DL | URIC ACID [1]: 1.55 mg/dL | ABSOLUTE BASOPHIL [2]: 0 CELLS/uL | ABSOLUTE EOSINOPHIL [2]: 23.33 CELLS/uL | ABSOLUTE LYMPHOCYTE [2]: 14943.67 CELLS/uL | ABSOLUTE MONOCYTE [2]: 32 CELLS/uL | ABSOLUTE SEGMENTED NEUTROPHIL [2]: 1084.33 CELLS/uL | BASOPHIL [2]: 0% | EOSINOPHIL [2]: 0.17% | ERYTHROCYTE COUNT [2]: 5.71 x10E6/uL | HEMATOCRIT [2]: 35.28% | HEMOGLOBIN [2]: 14.27 G/DL | LEUKOCYTE COUNT [2]: 16.08 x10E3/uL | LYMPHOCYTE [2]: 93% | MEAN CORPUSCULAR HEMOGLOBIN [2]: 25.02 pg | MEAN CORPUSCULAR HEMOGLOBIN CONCENTRATION [2]: 40.43 G/DL | MEAN CORPUSCULAR VOLUME [2]: 61.82 fL | MONOCYTE [2]: 0.17% | NEUTROPHIL [2]: 6.67% | NUCLEATED RED BLOOD CELLS [2]: 0.33 /100WBC | PLATELET COUNT [2]: 1274 x10E3/uL | ALANINE AMINOTRANSFERASE [2]: 54.17 u/L | ALBUMIN [2]: 4.22 G/DL | ALKALINE PHOSPHATASE [2]: 373.17 u/L | ASPARTATE AMINOTRANSFERASE [2]: 81.83 u/L | BLOOD UREA NITROGEN [2]: 16.67 mg/dL | CARBON DIOXIDE [2]: 30.33 mmol/L | CHLORIDE [2]: 99 MEQ/L | CHOLESTEROL [2]: 71 mg/dL | CREATINE PHOSPHOKINASE [2]: 273.5 u/L | CREATININE [2]: 0.22 mg/dL | GLUCOSE [2]: 141.83 mg/dL | LACTATE DEHYDROGENASE [2]: 153.67 u/L | LIPASE [2]: 10.33 u/L | PHOSPHORUS [2]: 11.38 mg/dL | POTASSIUM [2]: 7.08 MEQ/L | SODIUM [2]: 142.75 MEQ/L | TOTAL BILIRUBIN [2]: 0.18 mg/dL | TOTAL PROTEIN [2]: 6.1 G/DL | URIC ACID [2]: 1.67 mg/dL | ABSOLUTE BASOPHIL [3]: 0 CELLS/uL | ABSOLUTE EOSINOPHIL [3]: 82.33 CELLS/uL | ABSOLUTE LYMPHOCYTE [3]: 12453.33 CELLS/uL | ABSOLUTE MONOCYTE [3]: 303 CELLS/uL | ABSOLUTE SEGMENTED NEUTROPHIL [3]: 1061.33 CELLS/uL | BASOPHIL [3]: 0% | EOSINOPHIL [3]: 0.67% | ERYTHROCYTE COUNT [3]: 5.58 x10E6/uL | HEMATOCRIT [3]: 36.1% | HEMOGLOBIN [3]: 14.47 G/DL | LEUKOCYTE COUNT [3]: 13.9 x10E3/uL | LYMPHOCYTE [3]: 89.67% | MEAN CORPUSCULAR HEMOGLOBIN [3]: 25.9 pg | MEAN CORPUSCULAR HEMOGLOBIN CONCENTRATION [3]: 40.1 G/DL | MEAN CORPUSCULAR VOLUME [3]: 64.73 fL | MONOCYTE [3]: 2% | NEUTROPHIL [3]: 7.67% | NUCLEATED RED BLOOD CELLS [3]: 0.33 /100WBC | PLATELET COUNT [3]: 1180.67 x10E3/uL | ALANINE AMINOTRANSFERASE [3]: 50.67 u/L | ALBUMIN [3]: 4.17 G/DL | ALKALINE PHOSPHATASE [3]: 358 u/L | ASPARTATE AMINOTRANSFERASE [3]: 90.67 u/L | BLOOD UREA NITROGEN [3]: 16.33 mg/dL | CARBON DIOXIDE [3]: 27.33 mmol/L | CHLORIDE [3]: 101.33 MEQ/L | CHOLESTEROL [3]: 81.67 mg/dL | CREATINE PHOSPHOKINASE [3]: 304 u/L | CREATININE [3]: 0.2 mg/dL | GLUCOSE [3]: 157.33 mg/dL | LACTATE DEHYDROGENASE [3]: 312 u/L | LIPASE [3]: 10 u/L | PHOSPHORUS [3]: 15.03 mg/dL | POTASSIUM [3]: 7.11 MEQ/L | SODIUM [3]: 147.4 MEQ/L | TOTAL BILIRUBIN [3]: 0.2 mg/dL | TOTAL PROTEIN [3]: 5.83 G/DL | URIC ACID [3]: 2.3 mg/dL
